Measurements reported in ChEMBL document CHEMBL1287744, “Potent and selective 5-LO inhibitor bearing benzothiophene pharmacophore: discovery of MK-5286” (Bioorg Med Chem Lett, 2010).
Calls of active or inactive are those of the source. The calls are words filed in the database; no cut-off is given here.

What was measured:
[1] = molecular target: T1, Polyunsaturated fatty acid 5-lipoxygenase (Homo sapiens, UniProt P09917); assay: Inhibition of 5-lipoxygenase in human whole blood assessed as inhibition of LTB4 production; format: tissue-based
T1 sequence (P09917 whole entry): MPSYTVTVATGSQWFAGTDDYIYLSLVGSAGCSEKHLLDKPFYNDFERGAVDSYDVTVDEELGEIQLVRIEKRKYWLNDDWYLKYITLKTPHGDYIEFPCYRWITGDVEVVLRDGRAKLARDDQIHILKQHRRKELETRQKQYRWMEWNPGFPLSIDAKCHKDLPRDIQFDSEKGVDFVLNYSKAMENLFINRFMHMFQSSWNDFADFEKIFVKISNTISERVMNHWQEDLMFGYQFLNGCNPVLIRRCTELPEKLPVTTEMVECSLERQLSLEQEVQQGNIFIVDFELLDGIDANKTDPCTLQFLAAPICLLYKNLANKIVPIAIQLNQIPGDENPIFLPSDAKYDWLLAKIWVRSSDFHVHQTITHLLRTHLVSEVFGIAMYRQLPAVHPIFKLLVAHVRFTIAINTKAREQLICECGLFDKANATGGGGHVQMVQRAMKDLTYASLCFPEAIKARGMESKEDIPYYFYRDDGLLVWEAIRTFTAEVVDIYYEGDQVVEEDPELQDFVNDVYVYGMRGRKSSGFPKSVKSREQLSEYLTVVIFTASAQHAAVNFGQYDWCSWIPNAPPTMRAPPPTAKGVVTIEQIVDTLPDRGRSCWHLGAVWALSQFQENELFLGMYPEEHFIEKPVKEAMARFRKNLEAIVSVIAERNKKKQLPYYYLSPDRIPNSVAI

[2] = molecular target: T1, Polyunsaturated fatty acid 5-lipoxygenase; assay: Inhibition of human recombinant 5-lipoxygenase assessed as arachidonic acid oxidation
[3] = Half life in rhesus monkey at 5 mg/kg, iv and 4 mg/kg, po; format: ADME, organism-based, Macaca mulatta; conditions: in vivo
[4] = Half life in rat at 5 mg/kg, iv and 20 mg/kg, po; format: ADME, organism-based; conditions: in vivo
[5] = molecular target: T2, Polyunsaturated fatty acid lipoxygenase ALOX15 (Homo sapiens, UniProt P16050); assay: Inhibition of 15-lipoxygenase
T2 sequence (P16050 whole entry): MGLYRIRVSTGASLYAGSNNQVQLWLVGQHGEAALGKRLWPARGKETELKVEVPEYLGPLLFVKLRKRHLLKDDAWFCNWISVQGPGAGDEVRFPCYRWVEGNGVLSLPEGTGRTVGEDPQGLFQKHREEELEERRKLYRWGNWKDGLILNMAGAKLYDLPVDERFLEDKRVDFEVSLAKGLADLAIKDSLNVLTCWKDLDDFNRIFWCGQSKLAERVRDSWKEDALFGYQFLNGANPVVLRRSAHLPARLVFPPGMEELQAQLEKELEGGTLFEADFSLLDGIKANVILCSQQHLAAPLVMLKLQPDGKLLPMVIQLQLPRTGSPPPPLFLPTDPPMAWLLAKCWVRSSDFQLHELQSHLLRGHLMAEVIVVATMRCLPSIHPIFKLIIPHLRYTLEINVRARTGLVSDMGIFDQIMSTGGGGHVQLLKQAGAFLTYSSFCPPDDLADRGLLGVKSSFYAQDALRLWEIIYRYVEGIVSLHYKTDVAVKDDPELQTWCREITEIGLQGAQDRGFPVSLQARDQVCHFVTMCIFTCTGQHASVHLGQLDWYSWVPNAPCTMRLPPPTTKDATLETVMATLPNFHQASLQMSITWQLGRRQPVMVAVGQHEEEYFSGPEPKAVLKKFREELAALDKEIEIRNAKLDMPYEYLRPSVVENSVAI

[6] = molecular target: Voltage-gated inwardly rectifying potassium channel KCNH2 (Homo sapiens, UniProt Q12809); assay: Displacement of labeled MK-499 from human ERG
Voltage-gated inwardly rectifying potassium channel KCNH2, sequence (Q12809 whole entry): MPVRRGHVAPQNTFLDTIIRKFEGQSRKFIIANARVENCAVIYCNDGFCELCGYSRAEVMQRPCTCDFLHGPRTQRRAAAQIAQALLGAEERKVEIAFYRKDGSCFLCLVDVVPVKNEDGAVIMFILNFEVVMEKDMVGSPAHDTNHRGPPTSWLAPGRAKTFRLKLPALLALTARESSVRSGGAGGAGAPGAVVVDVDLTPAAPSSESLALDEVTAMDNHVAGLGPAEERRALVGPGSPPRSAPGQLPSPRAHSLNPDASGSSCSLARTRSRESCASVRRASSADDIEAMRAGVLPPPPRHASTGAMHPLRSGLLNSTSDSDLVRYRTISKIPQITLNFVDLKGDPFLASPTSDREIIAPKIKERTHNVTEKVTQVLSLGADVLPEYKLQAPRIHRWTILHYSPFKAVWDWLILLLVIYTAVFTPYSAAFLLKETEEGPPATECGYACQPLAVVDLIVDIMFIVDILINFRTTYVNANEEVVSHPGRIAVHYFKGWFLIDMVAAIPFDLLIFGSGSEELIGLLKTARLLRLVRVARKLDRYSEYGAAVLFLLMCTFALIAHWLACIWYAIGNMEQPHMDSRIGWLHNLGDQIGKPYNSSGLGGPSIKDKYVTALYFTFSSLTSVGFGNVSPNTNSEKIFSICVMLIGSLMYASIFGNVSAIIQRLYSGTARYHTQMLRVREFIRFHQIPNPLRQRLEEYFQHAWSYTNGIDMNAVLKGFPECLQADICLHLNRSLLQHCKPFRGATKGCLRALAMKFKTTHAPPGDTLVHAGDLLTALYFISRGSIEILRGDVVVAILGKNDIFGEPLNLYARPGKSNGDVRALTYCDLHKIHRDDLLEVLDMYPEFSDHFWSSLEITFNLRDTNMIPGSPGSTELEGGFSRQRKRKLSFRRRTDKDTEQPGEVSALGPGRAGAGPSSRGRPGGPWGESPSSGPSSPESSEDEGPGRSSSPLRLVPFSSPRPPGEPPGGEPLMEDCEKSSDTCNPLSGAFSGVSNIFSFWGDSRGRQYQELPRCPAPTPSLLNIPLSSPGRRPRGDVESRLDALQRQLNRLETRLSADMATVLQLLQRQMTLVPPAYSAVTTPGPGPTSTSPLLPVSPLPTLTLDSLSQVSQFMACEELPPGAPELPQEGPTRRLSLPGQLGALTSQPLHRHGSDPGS

[7] = molecular target: T3, Polyunsaturated fatty acid lipoxygenase ALOX12 (Homo sapiens, UniProt P18054); assay: Inhibition of 12-lipoxygenase
T3 sequence (P18054 whole entry): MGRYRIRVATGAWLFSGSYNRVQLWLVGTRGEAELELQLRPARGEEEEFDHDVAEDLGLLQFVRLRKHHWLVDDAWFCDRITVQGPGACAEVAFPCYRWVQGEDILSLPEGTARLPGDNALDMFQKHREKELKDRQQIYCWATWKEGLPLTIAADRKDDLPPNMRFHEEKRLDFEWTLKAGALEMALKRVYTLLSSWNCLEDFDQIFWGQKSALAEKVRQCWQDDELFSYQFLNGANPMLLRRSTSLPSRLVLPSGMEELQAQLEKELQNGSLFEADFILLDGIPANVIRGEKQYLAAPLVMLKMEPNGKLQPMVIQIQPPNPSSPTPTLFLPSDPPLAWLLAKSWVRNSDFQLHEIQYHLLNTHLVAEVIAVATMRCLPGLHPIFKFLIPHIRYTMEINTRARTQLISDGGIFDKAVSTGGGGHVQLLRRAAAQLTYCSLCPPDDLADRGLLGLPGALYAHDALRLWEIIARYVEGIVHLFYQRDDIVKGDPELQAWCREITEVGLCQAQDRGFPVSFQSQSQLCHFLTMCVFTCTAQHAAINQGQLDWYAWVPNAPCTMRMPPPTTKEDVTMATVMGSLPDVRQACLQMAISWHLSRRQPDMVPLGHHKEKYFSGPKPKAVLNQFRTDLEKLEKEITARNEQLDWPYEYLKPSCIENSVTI

[8] = Oral bioavailability in dog at 4 mg/kg; format: ADME, organism-based, Canis lupus familiaris; conditions: in vivo
[9] = Half life in dog at 5 mg/kg, iv and 4 mg/kg, po; format: ADME, organism-based, Canis lupus familiaris; conditions: in vivo
[10] = Oral bioavailability in rhesus monkey at 4 mg/kg; format: ADME, organism-based, Macaca mulatta; conditions: in vivo
[11] = Cmax in dog at 5 mg/kg, iv and 4 mg/kg, po; format: ADME, organism-based, Canis lupus familiaris; conditions: in vivo
[12] = molecular target: T4, Arachidonate 5-lipoxygenase-activating protein (Homo sapiens, UniProt P20292); assay: (§1) Inhibition of 5-lipoxygenase activating protein
T4 sequence (P20292 whole entry): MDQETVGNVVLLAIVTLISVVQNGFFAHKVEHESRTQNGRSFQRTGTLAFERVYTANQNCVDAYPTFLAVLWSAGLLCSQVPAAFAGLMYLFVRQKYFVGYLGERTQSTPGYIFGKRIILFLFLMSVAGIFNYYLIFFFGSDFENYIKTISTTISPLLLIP

[13] = Cmax in rat at 5 mg/kg, iv and 20 mg/kg, po; format: ADME, organism-based; conditions: in vivo
[14] = Cmax in rhesus monkey at 5 mg/kg, iv and 4 mg/kg, po; format: ADME, organism-based, Macaca mulatta; conditions: in vivo
[15] = Oral bioavailability in rat at 20 mg/kg; format: ADME, organism-based; conditions: in vivo
[16] = molecular target: T5, Arachidonate 5-lipoxygenase-activating protein (Homo sapiens) (UniProt P20292); assay: as §1
T5 sequence (whole entry): T4 sequence (P20292 whole entry)

CCC(O)(c1cn(Cc2ccc3c(-c4ccccc4)c(C(=O)NC)sc3c2)nn1)C(F)(F)F (stereo not given)
IC50 [1]: 263 nM | IC50 [2]: 223 nM

CC[C@](O)(c1cn(Cc2ccc3c(-c4ccc(F)cc4)c(C(N)=O)sc3c2)nn1)C(F)(F)F
half-life [3]: 22 h | half-life [4]: 7.9 h | IC50 [1]: 21 nM | IC50 [5]: > 20000 nM | Ki ([6]; read-out: Ki): 13000 nM | IC50 [7]: > 20000 nM | bioavailability [8]: 120% | IC50 [2]: 55 nM | half-life [9]: 29 h | bioavailability [10]: 66% | Cmax [11]: 6.7 µM | IC50 [12]: > 20000 nM | Cmax [13]: 19.4 µM | Cmax [14]: 1.4 µM | bioavailability [15]: 114%

CCC(O)(c1cn(Cc2ccc3c(-c4ccccc4)c(C(=O)OC)sc3c2)nn1)C(F)(F)F (stereo not given)
IC50 [1]: 260 nM | IC50 [2]: 7.9 nM

CCC(O)(c1cn(Cc2ccc3c(-c4ccccc4)c(CO)sc3c2)nn1)C(F)(F)F (stereo not given)
IC50 [1]: 64 nM | Ki ([6]; read-out: Ki): 13000 nM | IC50 [2]: 19 nM

CCC(O)(c1cn(Cc2ccc3c(-c4ccccc4)c(C(C)(C)O)sc3c2)nn1)C(F)(F)F (stereo not given)
IC50 [1]: 392 nM | Ki ([6]; read-out: Ki): 2600 nM | IC50 [2]: 198 nM

CCC(O)(c1cn(Cc2ccc3c(-c4ccccc4)csc3c2)nn1)C(F)(F)F (stereo not given)
IC50 [1]: 598 nM | Ki [6]: Not Active | IC50 [2]: 40 nM

CC[C@](O)(c1cn(Cc2ccc3c(-c4ccc(F)cc4)c(C(=O)O)sc3c2)nn1)C(F)(F)F
IC50 [1]: > 20000 nM | inhibition (INH) ([6]; human): Not Active | Ki ([6]; read-out: Ki): > 20000 nM | IC50 [2]: > 10000 nM | inhibition [16]: inactive

CCC(O)(c1cn(Cc2ccc3c(-c4ccccc4)c(C(C)=O)sc3c2)nn1)C(F)(F)F (stereo not given)
IC50 [1]: 84 nM | Ki ([6]; read-out: Ki): 4400 nM | IC50 [2]: 11 nM

CCC(O)(c1cn(Cc2ccc3c(-c4ccccc4)c(C(=O)N(C)C)sc3c2)nn1)C(F)(F)F (stereo not given)
IC50 [1]: 1840 nM | Ki ([6]; read-out: Ki): > 20000 nM | IC50 [2]: 1890 nM

CCC(O)(c1cn(Cc2ccc3c(-c4ccccc4)c(C(C)O)sc3c2)nn1)C(F)(F)F (stereo not given)
IC50 [1]: 161 nM | Ki ([6]; read-out: Ki): 3800 nM | IC50 [2]: 88 nM

CC[C@](O)(c1cn(Cc2ccc3c(-c4ccccc4)c(C(N)=O)sc3c2)nn1)C(F)(F)F
IC50 [1]: 32 nM | IC50 [2]: 28 nM

CC[C@](O)(c1cn(Cc2ccc3c(-c4cccc(F)c4)c(C(N)=O)sc3c2)nn1)C(F)(F)F
IC50 [1]: 31 nM | Ki ([6]; read-out: Ki): 14000 nM | IC50 [2]: 39 nM

CCC(O)(c1cn(Cc2ccc3c(-c4ccccc4)c(C(=O)O)sc3c2)nn1)C(F)(F)F (stereo not given)
IC50 [1]: > 20000 nM | Ki ([6]; read-out: Ki): > 20000 nM | IC50 [2]: > 10000 nM

CC[C@@](O)(c1cn(Cc2ccc3c(-c4ccc(F)cc4)c(C(N)=O)sc3c2)nn1)C(F)(F)F
IC50 [1]: 154 nM | Ki ([6]; read-out: Ki): 11000 nM | IC50 [2]: 1160 nM

CCC(O)(c1cn(Cc2ccc3c(-c4ccccc4)c(C(N)=O)sc3c2)nn1)C(F)(F)F (stereo not given)
IC50 [1]: 70 nM | IC50 [2]: 55 nM
